The results in this text go back to BindingDB's records for patent US20250313563 (The Broad Institute, 2025).

As a reminder, the IC50 is the concentration needed to halve the response being measured. Higher therefore signals a need for much substance.

Values joined by “and” are separate entries in the source; they are usually repeats but may differ in a detail not shown here. Identical values can stand only once.

Test [1] deals with Glycogen synthase kinase-3 beta (Homo sapiens, UniProt P49841). Briefly: TR-FRET Assay. The procedure, abridged: (§1)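 30 min preinc w/ cpd in assay buffer → kinase rxn → EDTA quench → add detection mix (40 nM SA-d2, 2 nM Tb-pSer641 Ab) → TR-FRET read.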
Glycogen synthase kinase-3 beta, sequence (P49841 whole entry): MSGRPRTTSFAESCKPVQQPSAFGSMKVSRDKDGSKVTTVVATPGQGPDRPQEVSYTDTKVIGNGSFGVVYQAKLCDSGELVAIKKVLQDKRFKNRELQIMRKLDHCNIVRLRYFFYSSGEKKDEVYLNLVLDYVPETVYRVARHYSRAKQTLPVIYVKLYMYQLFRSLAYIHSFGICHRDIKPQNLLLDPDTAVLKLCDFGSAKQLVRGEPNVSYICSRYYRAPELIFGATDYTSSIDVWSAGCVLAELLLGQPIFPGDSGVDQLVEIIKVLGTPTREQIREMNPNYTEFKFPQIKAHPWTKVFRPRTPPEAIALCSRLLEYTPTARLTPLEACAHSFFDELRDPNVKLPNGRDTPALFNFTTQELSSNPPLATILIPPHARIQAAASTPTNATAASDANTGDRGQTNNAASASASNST
Test [2] has as its target Glycogen synthase kinase-3 alpha (Homo sapiens, UniProt P49840). The test can be described thus: TR-FRET Assay. The procedure, abridged:
as §1
(In general: In TR-FRET formats the signal depends on donor and acceptor labels being close together.)

Glycogen synthase kinase-3 alpha, sequence (P49840 whole entry): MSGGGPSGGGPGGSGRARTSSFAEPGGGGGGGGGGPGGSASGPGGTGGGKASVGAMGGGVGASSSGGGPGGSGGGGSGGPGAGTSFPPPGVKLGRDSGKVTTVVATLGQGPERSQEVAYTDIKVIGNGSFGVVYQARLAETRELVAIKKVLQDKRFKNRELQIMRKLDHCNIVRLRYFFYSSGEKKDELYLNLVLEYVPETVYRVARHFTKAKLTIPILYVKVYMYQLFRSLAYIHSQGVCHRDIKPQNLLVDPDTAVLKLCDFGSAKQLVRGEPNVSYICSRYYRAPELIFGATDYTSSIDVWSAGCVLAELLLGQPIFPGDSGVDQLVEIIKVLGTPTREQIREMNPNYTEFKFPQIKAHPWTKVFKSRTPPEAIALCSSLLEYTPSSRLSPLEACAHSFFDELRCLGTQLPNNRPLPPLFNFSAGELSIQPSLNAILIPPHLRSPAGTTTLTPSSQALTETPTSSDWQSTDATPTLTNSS

On to `CC[C@]1(c2cccc(C3CCC3)c2)C2=CN=NC2NC2=C1C(=O)CC(C)(C)C2` (some centres not stated) [US20250313563, Compound 949521], for which the IC50 in test [1] was < 0.1 µM and 1 to 5 µM; in test [2], < 0.1 µM and 0.1 to 1 µM.
As for `CC1(C)CC(=O)C2=C(C1)NC1=C(CN=N1)[C@]21CCOC2(CCC2)C1` [US20250313563, Compound 897756], the IC50 in test [1] and in test [2] was 0.1 to 1 µM in each case.
Regarding `COCc1ccc(S(=O)(=O)N2CCC3(CC2)C2=C(N=NC2)NC2=C3C(=O)CC(C)(C)C2)cc1` [US20250313563, Compound 947250], the IC50 in test [1] and in test [2] was less than 0.1 µM throughout.
As for `CCC1(c2cccc(-c3c(C)nnn3C)c2)C2=C(N=NC2)NC2=C1C(=O)C(C)(C)C2` (configuration not stated) [US20250313563, Compound 950815], the IC50 lay within 1 to 5 µM in test [1] and 0.1 to 1 µM in test [2].
In the same order, the values of `CCC1(c2cccc(-c3c(C)cncc3C)c2)C2=CN=NC2NC2=C1C(=O)CC(C)(C)C2` (configuration not stated) [US20250313563, Compound 945703] are less than 0.1 µM and less than 0.1 µM.
On to `CC[C@@]1(c2cccc(-c3ccnc(C)c3)c2)C2=CN=NC2NC2=C1C(=O)N[C@@]1(CCOC1)C2` (some centres not stated) [US20250313563, Compound 947406], for which the IC50 in test [1] is 0.1 to 1 µM and > 5 µM; in test [2], < 0.1 µM and 0.1 to 1 µM.
`CC[C@]1(c2cccc(C(F)(F)F)c2)C2=CN=NC2NC2=C1C(=O)N(c1ccc(F)cc1)CC2` (some centres not stated) [US20250313563, Compound 948224]: the IC50 was 0.1 to 1 µM in test [1] and less than 0.1 µM in test [2].
In the same order, the values of `CC1(C)CC(=O)C2=C(C1)NC1=C(CN=N1)C21COC2(CN(C(=O)CC3CC3)C2)C1` (configuration not stated) [US20250313563, Compound 947298] are less than 0.1 µM and less than 0.1 µM.
For `CC[C@@]1(c2cccc(-c3ccnc4c3cnn4C)c2)C2=CN=NC2NC2=C1C(=O)NC(C)(C)C2` (some centres not stated) [US20250313563, Compound 952913] the same measures were 0.1 to 1 µM and less than 0.1 µM.
In the same order, the values of `CC[C@]1(c2cccc(-c3c(C)nn(C)c3C)c2)C2=C(CC(C)(C)NC2=O)NC2N=NC(C(F)(F)F)=C21` (some centres not stated) [US20250313563, Compound 948417] are 1 to 5 µM and 0.1 to 1 µM.
For the compound `CC[C@]1(c2cccc(-c3cnn(C)c3)c2)C2=CN=NC2NC2=C1C(=O)CC(C)(C)[C@@H]2F` (some centres not stated) [US20250313563, Compound 957504], the IC50 in test [1] was in the range of 1 to 5 µM; in test [2], 0.1 to 1 µM.
As to `CC1(C)CC(=O)C2=C(C1)NC1=C(CN=N1)C21CCN(S(=O)(=O)c2cccc(C#N)c2)CC1` [US20250313563, Compound 947254], the 50% inhibitory concentration (IC50) is < 0.1 µM and 0.1 to 1 µM in test [1]; less than 0.1 µM in test [2].
As to `CC1(C)CC(=O)C2=C(C1)NC1=C(CN=N1)C21CCCNCC1` (configuration not stated) [US20250313563, Compound 889571], the IC50 in test [1] and in test [2] was more than 5 µM in each case.
On to `CC1(C)CC(=O)C2=C(C1)NC1=C(CN=N1)[C@]21COC2(CN(S(C)(=O)=O)C2)C1` [US20250313563, Compound 926823], for which the IC50 is 1 to 5 µM in test [1] and 0.1 to 1 µM in test [2].
In the same order, the values of `CC1(C)CC(=O)C2=C(C1)NC1=C(CN=N1)[C@@]21COC2(CN(C(=O)[C@H]3CC3(F)F)C2)C1` [US20250313563, Compound 948217] are 1 to 5 µM and 0.1 to 1 µM.
`CC1(C)CC(=O)C2=C(C1)NC1=C(CN=N1)C21CCN(S(=O)(=O)c2ccccc2C(F)(F)F)CC1` [US20250313563, Compound 945667]: the IC50 in test [1] is 0.1 to 1 µM; in test [2], less than 0.1 µM.
In the same order, the values of `CCC1(c2cccc(CS(C)(=O)=O)c2)C2=CN=NC2NC2=C1C(=O)CC(C)(C)C2` (configuration not stated) [US20250313563, Compound 945601] are 0.1 to 1 µM and 0.1 to 1 µM.
For `CC[C@@]1(c2cccc(-c3cc(OC)ncc3F)c2)C2=CN=NC2NC2=C1C(=O)NC(C)(C)C2` (some centres not stated) [US20250313563, Compound 949109] the same measures were 0.1 to 1 µM and less than 0.1 µM.
As to `CC[C@]1(c2cccc(-c3cc(C)nn3C)c2)C2=CN=NC2NC2=C1C(=O)CC(C)(C)[C@@H]2F` (some centres not stated) [US20250313563, Compound 947655], the IC50 in test [1] is 0.1 to 1 µM; in test [2], less than 0.1 µM.
In the same order, the values of `Cc1ccc(C(=O)N2CC3(C2)CC2(CO3)C3=C(N=NC3)NC3=C2C(=O)CC(C)(C)C3)cc1` (configuration not stated) [US20250313563, Compound 947290] are less than 0.1 µM and less than 0.1 µM.
For `Cc1nn(C)c(C)c1S(=O)(=O)N1CCC2(CC1)C1=C(N=NC1)NC1=C2C(=O)CC(C)(C)C1` [US20250313563, Compound 947257] the same measures were 1 to 5 µM and 0.1 to 1 µM.
For the compound `CC1(C)CC(=O)C2=C(C1)NC1=C(CN=N1)C21CCN(S(=O)(=O)c2ccccc2OC(F)F)CC1` [US20250313563, Compound 945668], the IC50 is < 0.1 µM and 0.1 to 1 µM in test [1]; less than 0.1 µM in test [2].
For `Cc1cccc2c1CC[C@]21C2=C(N=NC2)NC2=C1C(=O)CC(C)(C)C2` [US20250313563, Compound 913137], the IC50 in test [1] and in test [2] was more than 5 µM each time.
In the case of `CC1(C)CC(=O)C2=C(C1)NC1N=NC=C1C21CC2(CCOCC2)C1` (configuration not stated) [US20250313563, Compound 874534], the IC50 in test [1] is < 0.1 µM and 0.1 to 1 µM; in test [2] it was < 0.1 µM and 0.1 to 1 µM.
Consider `CC[C@@]1(c2cccc(C(F)(F)F)c2)C2=CN=NC2NC2=C1C(=O)N(c1cnn(C)c1C)CC2` (some centres not stated) [US20250313563, Compound 952257], for which the IC50 was 0.1 to 1 µM in test [1] and less than 0.1 µM in test [2].
In the same order, the values of `CCC1(c2cccc(-c3ccnc(C)c3C)c2)C2=CN=NC2NC2=C1C(=O)CC(C)(C)C2` (configuration not stated) [US20250313563, Compound 913347] are less than 0.1 µM and less than 0.1 µM.
In the same order, the values of `CC[C@]1(c2cccc(-c3cnn(CCN4CCCC4)c3)c2)C2=CN=NC2NC2=C1C(=O)NC(C)(C)C2` (some centres not stated) [US20250313563, Compound 949510] are more than 5 µM and more than 5 µM.
For `CC(C)(C)CC1=C2C(N=N1)NC1=C(C(=O)CC(C)(C)C1)C21CCc2ccc(F)cc21` (configuration not stated) [US20250313563, Compound 784440] the same measures were less than 0.1 µM and 0.1 to 1 µM.
Take `CC[C@@]1(c2cccc(-c3cnc(C)n3C)c2)C2=CN=NC2NC2=C1C(=O)CC(C)(C)C2` (some centres not stated) [US20250313563, Compound 945612]: the results for the IC50 in test [1] and in test [2] were more than 5 µM and 1 to 5 µM, respectively.
In the same order, the values of `CC[C@]1(c2cccc(-c3ccnc(C)c3)c2)C2=CN=NC2NC2=C1C(=O)N[C@@]1(CCOC1)C2` (some centres not stated) [US20250313563, Compound 948140] are 0.1 to 1 µM and less than 0.1 µM.
For `CC[C@@]1(c2cccc(C(F)(F)F)c2)C2=CN=NC2NC2=C1C(=O)N(c1cscn1)CC2` (some centres not stated) [US20250313563, Compound 952638] the same measures were more than 5 µM and more than 5 µM.
For `CC[C@@]1(c2cccc(-c3ccnc(O)c3)c2)C2=CN=NC2NC2=C1C(=O)CC(C)(C)C2` (some centres not stated) [US20250313563, Compound 943993] the same measures were more than 5 µM and more than 5 µM.
On to `CC[C@@]1(c2cccc(-c3ccnn3C)c2)C2=CN=NC2NC2=C1C(=O)CC(C)(C)C2` (some centres not stated) [US20250313563, Compound 911993], for which the IC50 is 0.1 to 1 µM in test [1] and less than 0.1 µM in test [2].
For `CC1(C)CC(=O)C2=C(C1)NC1=C(CN=N1)C21CCN(S(=O)(=O)c2cn3c(n2)CCCC3)CC1` [US20250313563, Compound 947472] the same measures were 0.1 to 1 µM and less than 0.1 µM.
Consider `CC[C@]1(c2cccc(-c3ccnc4ccc(C)cc34)c2)C2=CN=NC2NC2=C1C(=O)NC(C)(C)C2` (some centres not stated) [US20250313563, Compound 948658], for which the IC50 in test [1] and in test [2] was more than 5 µM in each case.
Consider `CC[C@@]1(c2cccc(-c3ccnn3C)c2)C2=CN=NC2NC2=C1C(=O)NC(C)(C)C2` (some centres not stated) [US20250313563, Compound 927390], for which the IC50 in test [1] is more than 5 µM; in test [2], 0.1 to 1 µM.
Turning to `CC[C@@]1(c2ccccc2)C2=C(N=NC2)NC2=C1C(=O)[C@H]1CC[C@@H]2C1` [US20250313563, Compound 791266], the IC50 in test [1] and in test [2] was more than 5 µM in each case.
Regarding `CCC1(c2cccc(S(=O)(=O)CC)c2)C2=CN=NC2NC2=C1C(=O)CC(C)(C)C2` (configuration not stated) [US20250313563, Compound 889579], the IC50 in test [1] and in test [2] was less than 0.1 µM in each case.
Take `CC[C@@]1(c2cccc(OC(C)C)c2)C2=C(CC(C)(C)CC2=O)NC2N=NC(C(F)(F)F)=C21` (some centres not stated) [US20250313563, Compound 947872]: the IC50 in test [1] was in the range of 1 to 5 µM; in test [2], 0.1 to 1 µM.
In the same order, the values of `CCC1(c2cccc(C)c2)C2=CN=NC2NC2=C1C(=O)CC(C)(C)C2` (configuration not stated) [US20250313563, Compound 785738] are 0.1 to 1 µM and less than 0.1 µM.
For `CC[C@@]1(c2cccc(C3=C4CC=C(C)N=C4N=CC3)c2)C2=CN=NC2NC2=C1C(=O)NC(C)(C)C2` (some centres not stated) [US20250313563, Compound 948143] the same measures were 0.1 to 1 µM and less than 0.1 µM.
Turning to `CC1(C)CC(=O)C2=C(C1)NC1=C(CN=N1)[C@@]21COC2(CN(C(=O)c3ccccc3)C2)C1` [US20250313563, Compound 943955], the IC50 in test [1] and in test [2] was less than 0.1 µM in each case.
For the compound `CC[C@]1(c2cccc(-c3cnn4ccncc34)c2)C2=CN=NC2NC2=C1C(=O)NC(C)(C)C2` (some centres not stated) [US20250313563, Compound 949263], the IC50 in test [1] and in test [2] was more than 5 µM throughout.
Consider `CCC1(c2cccc(-c3ccnc(C)c3OC)c2)C2=CN=NC2NC2=C1C(=O)NC(C)(C)C2` (configuration not stated) [US20250313563, Compound 948794], for which the results for the IC50 in test [1] and in test [2] were 0.1 to 1 µM and less than 0.1 µM, respectively.
In the same order, the values of `CC1(C)CC(=O)C2=C(C1)NC1N=NC=C1C21CCCN(S(=O)(=O)C2CC2)CC1` (configuration not stated) [US20250313563, Compound 917137] are less than 0.1 µM and less than 0.1 µM.
Regarding `CCC1(c2cccc(N3CCCC3)c2)C2=CN=NC2NC2=C1C(=O)NC(C)(C)C2` (configuration not stated) [US20250313563, Compound 945723], the results for the IC50 in test [1] and in test [2] were 1 to 5 µM and 0.1 to 1 µM, respectively.
